Assay: Viscosity by rotational viscometry (MCR 302e, concentric cylinder)
Assay type: physicochemical
Details: 2 wt % HPC, 0.2 wt % anionic surfactant, PVPK12 0 to 16 wt %
Protocol: Viscosity was measured with rotational viscometry with a modular compact rheometer (MCR) 302e (Anton Paar). A concentric cylinder geometry was used. Shear rate was varied logarithmic from 0.1 1/s to 1000 1/s. 6 measurement points per decade were used. The measurement time was varied from 10 s for a shear rate of 0.1 1/s and is for 1000 1/s. Shear rate vs. Shear stress was plotted. The slope described the viscosity. The shear rate independent viscosity was evaluated, and the middle value was used.
Viscosity was measured with rotational viscometry with a modular compact rheometer (MCR) 302e (Anton Paar). A concentric cylinder geometry was used. Shear rate was varied logarithmic from 0.1 1/s to 1000 1/s. 6 measurement points per decade were used. The measurement time was varied form 10 s for a shear rate of 0.1 1/s and is for 1000 1/s.

Structure (SMILES): CCCCCCCCCCCCOS(=O)(=O)[O-].[Na+] [SDS, sodium dodecyl sulfate]
- Impact of anionic surfactant on viscosity reduction induced by PVPK12 addition (FIG. 5): strongest impact

Structure (SMILES): C[C@H](CCC(=O)[O-])[C@H]1CC[C@H]2[C@@H]3CC[C@@H]4C[C@H](O)CC[C@]4(C)[C@H]3C[C@H](O)[C@]12C.[Na+] [Na-Deoxycholate]
- Impact of anionic surfactant on viscosity reduction induced by PVPK12 addition (FIG. 5): do not show a reduction of viscosity

From patent US20240050370A1, “TRIPLE STABILIZER SYSTEM” (Bayer Aktiengesellschaft, priority 2022, published 2024)
